Patent US11547679B2, “Mitoriboscins: mitochondrial-based therapeutics targeting cancer cells, bacteria and pathogenic yeast” (LUNELLA BIOTECH, INC., priority 2017, dated 2023)
≈ marks a conversion by molar mass, not a printed value.

Assays:
[1] = system: MCF7 cells; test: Seahorse XF96 metabolic flux: oxygen consumption rate (OCR), ATP; format: cell-based, human; conditions: for rank order potency to reduce maximal respiration and ATP production: MCF7, top 10 hits; for mitochondrial oxygen-consumption: MCF7, 72 hours treatment
Text: (§1) The present approach further involves methods of functional validation at step S105, during which a compound's function as a mitochondrial inhibitor may be confirmed. A number of methods may be used for functional validation, including, for example, metabolic flux analysis, mammosphere assays, viability assays, and antibiotic (anti-bacterial and/or anti-fungal) activity. For example, the inventors determined extracellular acidification rates (ECAR) and real-time oxygen consumption rates (OCR) for MCF7 cells using the Seahorse Extracellular Flux (XF96) analyzer (Seahorse Bioscience, MA, USA). MCF7 cells were maintained in DMEM supplemented with 10% FBS (fetal bovine serum), 2 mM GlutaMAX, and 1% Pen-Strep. 5,000 cells per well were seeded into XF96-well cell culture plates, and incubated overnight at 37° C. in a 5% CO2 humidified atmosphere. After 24 hours, cells were treated with selected compounds showing ATP-depletion without prominent cytotoxicity at various concentrations (or vehicle alone). After 72 hours of treatment, cells were washed in pre-warmed XF assay media (for OCR measurement, XF assay media was supplemented with 10 mM glucose, 1 mM Pyruvate, 2 mM L-glutamine and adjusted at pH 7.4). Cells were maintained in 175 μL/well of XF assay media at 37° C. in a non-CO2 incubator for 1 hour. During incubation, 25 μL of 80 mM glucose, 9 μM oligomycin, 1M 2-deoxyglucose (for ECAR measurement) and 25 μL of 10 μM oligomycin, 9 μM FCCP, 10 μM rotenone, 10 μM antimycin A (for OCR measurement) in XF assay media was loaded into the injection ports of the XFe-96 sensor cartridge. During the experiment, the instrument injected these inhibitors into the wells at a given time point, while ECAR/OCR was measured continuously. ECAR and OCR measurements were normalized by protein content (using the Sulphorhodamine B assay). Data sets were analyzed by XFe-96 software, using one-way ANOVA and Student's t-test calculations. All experiments were performed in triplicate, and results validated the mitochondrial inhibition effects of mitoriboscin compounds described herein. It should be appreciated that numerous methods are known for functional validation, and that persons of skill in the art may select one or more depending on the validation needs (e.g., other assays that measure or approximate mitochondrial function). The present approach involves methods of function validation of mitoriboscin compounds. For example, the inventors assessed functional validation of three candidates using the Seahorse Analyzer, which quantitatively measures oxygen consumption rate (OCR) and extracellular acidification rate (ECAR). OCR is a surrogate marker for OXPHOS and ECAR is a surrogate marker for glycolysis and L-lactate production.

[2] = system: MCF7 cells; test: Mammosphere formation; format: cell-based, human; conditions: MCF7, 5 μM
Text: The present approach involves methods of testing compounds, and in particular mitoriboscins, for anti-cancer properties. As discussed above, vHTS and computational chemistry may be used to identify candidate mitochondrial inhibitors. Those candidates may be tested for specific anti-cancer properties. For examples, the inventors compared seven candidate compounds in parallel for their ability to inhibit mammosphere formation in MCF7 cells. […] For example, 23/G4 (Group 1) reduced mammosphere formation by 50% at this concentration. Similarly, 24/F9 (Group 2) and 24/D4 (Group 3), both reduced mammosphere formation by ˜90%.

[3] = system: MRSA ATCC 43300; test: MIC by broth dilution method; format: cell-based, Methicillin-resistant Staphylococcus aureus
Description: (§2) The minimal inhibitory concentration (MIC) of the antibacterial compounds may be determined using the broth dilution method, according to CLSI guidelines. Test compound solutions (or antibiotic solutions used as positive controls) were diluted, serially, with MHB medium. Then, the suspensions of the microorganisms, prepared from overnight cultures of bacteria in the MHB medium, at a concentration of 10^6 CFU/ml, were added to each dilution in a 1:1 ratio. McFarland standards were used as a reference to adjust the turbidity of microorganism suspensions. Growth (or lack thereof) of the microorganisms was determined after incubation for 24 hours at 37° C. by turbidimetry (wavelength of 600 nm). MIC 50 and MIC 99 are defined as the minimum inhibitory concentration of the compound required for 50% and 99% inhibition of bacterial growth. […] The susceptibility test by measurement of MIC was performed in triplicate and repeated three times independently. Statistical significance was determined using the Student's t-test and values of less than 0.05 were considered significant.

[4] = system: MCF7 cells; test: Seahorse XF96 metabolic flux: extracellular acidification rate (ECAR), glycolysis; format: cell-based, human
Text: as §1, with “ECAR and OCR measurements were normalized by protein content (using the Sulphorhodamine B assay).” left out, “All experiments were performed in triplicate, and results validated the mitochondrial inhibition effects of mitoriboscin compounds described herein. It should be appreciated that numerous methods are known for functional validation, and that persons of skill in the art may select one or more depending on the validation needs (e.g., other assays that measure or approximate mitochondrial function). The present approach involves methods of function validation of mitoriboscin compounds.” left out, “OCR is a surrogate marker for OXPHOS and ECAR is a surrogate marker for glycolysis and L-lactate production.” left out

[5] = system: Strept. pyogenes ATCC 19615; test: MIC by broth dilution method; format: cell-based; conditions: Strept. pyogenes ATCC 19615, 24 hours at 37° C.
Description: as §2, with “nm).” for “nm). MIC 50 and MIC 99 are defined as the minimum inhibitory concentration of the compound required for 50% and 99% inhibition of bacterial growth.”, “independently.” for “independently. Statistical significance was determined using the Student's t-test and values of less than 0.05 were considered significant.”

[6] = system: P. auriginosa ATCC 27853; test: MIC by broth dilution method; format: cell-based; conditions: P. auriginosa ATCC 27853, 24 hours at 37° C.
Description: as §2, with “nm).” for “nm). MIC 50 and MIC 99 are defined as the minimum inhibitory concentration of the compound required for 50% and 99% inhibition of bacterial growth.”, “independently.” for “independently. Statistical significance was determined using the Student's t-test and values of less than 0.05 were considered significant.”

[7] = system: K. pneumoniae ATCC 13883; test: MIC by broth dilution method; format: cell-based; conditions: K. pneumoniae ATCC 13883, 24 hours at 37° C.
Description: as §2, with “nm).” for “nm). MIC 50 and MIC 99 are defined as the minimum inhibitory concentration of the compound required for 50% and 99% inhibition of bacterial growth.”, “independently.” for “independently. Statistical significance was determined using the Student's t-test and values of less than 0.05 were considered significant.”

[8] = system: MCF7 cell monolayers; test: Cell viability of MCF7 cell monolayers; format: cell-based, human
Description: (§3) The present approach includes methods of confirming cell viability. Persons of skill in the art may select one or more methods for confirming cell viability suitable for the particular embodiment. The inventors initially used the Sulphorhodamine (SRB) assay, which is based on the measurement of cellular protein content. After treatment for 72 hours in 96-well plates, cells were fixed with 10% trichloroacetic acid (TCA) for 1 hour in the cold room, and were dried overnight at room temperature. Then, cells were incubated with SRB for 15 min, washed twice with 1% acetic acid, and air dried for at least 1 hour. Finally, the protein-bound dye was dissolved in a 10 mM Tris, pH 8.8 solution and read using the plate reader at 540-nm. Using the SRB assay, the inventors selected only the compounds depleting ATP levels without prominent cytotoxicity for further analysis. Prominent cytotoxicity was defined as fewer than 30% of cells still on the plate. Of course, embodiments employing other cell viability confirmation methodology may select compounds for further analysis based on other considerations as may be known in the art.
(§4) Based on this analysis, the inventors assessed the functional effects of the three candidates on overall viability in MCF7 cell monolayers and normal human fibroblasts (hTERT-BJ1 cells) (FIG. 6). […]

[9] = system: normal human fibroblasts (hTERT-BJ1 cells); test: Cell viability of normal fibroblasts; format: cell-based; conditions: 5 μM
Description: as §3, §4

Row | MIC 50% [5] [µg/mL] | MIC 99% [5] [µg/mL] | MIC 50% [6] [µg/mL] | MIC 99% [6] [µg/mL] | MIC 50% [7] [µg/mL] | MIC 99% [7] [µg/mL] | SMILES | rank order potency to reduce maximal respiration and ATP production ([1]; FIG. 10) | reduction of mammosphere formation [2] [%] | sensitivity of MRSA [3] | mitochondrial oxygen-consumption [1] | also measured
1 |  |  |  |  |  |  | OC1C(NCc2ccccc2)CCCC1Oc1ccccc1Oc1cccc(F)c1 (centres unmarked) [23/E9] | top 6 |  |  |  | 
2 | 4 (≈ 9.44 µM) | 8 (≈ 18.9 µM) | 16 (≈ 37.7 µM) | 32 (≈ 75.5 µM) | 16 (≈ 37.7 µM) | 32 (≈ 75.5 µM) | OC1C(NCc2ccccc2)CCCC1Oc1ccccc1Oc1ccc(Cl)cc1 (centres unmarked) [23/G4] | top 6 | 50 | sensitive | dose-dependently inhibited | increase in glycolysis rates [4]: more than 1.5 fold; reduction of ATP levels ([1]; MCF7, 500 nM): > 50%; reduction of ATP levels ([1]; MCF7, 2.5 μM): ~75%; reduction in ATP levels ([1]; MCF7, 5 μM, FIG. 10): greater than 75%; effect on overall cell viability of MCF7 monolayers ([8]; 500 nM and 2.5 μM): little or no effect; reduction of viability of MCF7 cells ([8]; 5 μM): 70%; effect on viability of hTERT-BJ1 cells [9]: no effect
3 | 16 (≈ 34.3 µM) | 32 (≈ 68.6 µM) | 16 (≈ 34.3 µM) | 32 (≈ 68.6 µM) | 16 (≈ 34.3 µM) | 32 (≈ 68.6 µM) | CCCc1ccc(OCc2ccccc2)c(CN2CCC3(CC2)CC(N(C)C)C(C)(O)CO3)c1 (centres unmarked) [24/D4] |  | ~90 | sensitive | dose-dependently inhibited | effect on glycolysis [4]: suppressed
4 | 32 (≈ 68.7 µM) | 64 (≈ 137 µM) | >32 | >64 | 32 (≈ 68.7 µM) | 64 (≈ 137 µM) | CN1CCN(C2CCN(Cc3cc(C(C)(C)C)ccc3OCc3ccccc3)CCC2O)CC1 (centres unmarked) [24/F9] | top 6 | ~90 |  | dose-dependently inhibited | effect on glycolysis [4]: suppressed
5 |  |  |  |  |  |  | CN1CCCN(C2CCN(Cc3cc(Cl)ccc3OCc3ccccc3)CCC2O)CC1 (centres unmarked) [24/H6] | top 6 |  |  |  | 
6 |  |  |  |  |  |  | CN(C)C1CC2(CCN(Cc3cc(Cl)ccc3OCc3ccccc3)CC2)OCC1(C)O (centres unmarked) [24/H9] | top 6 |  |  |  | 
7 |  |  |  |  |  |  | CN(C)Cc1cccc(C2CCCN2Cc2ccccc2OCc2cccc(F)c2)n1 (centres unmarked) [25/B3] | top 6 |  |  |  | 
8 |  |  |  |  |  |  | CC1(C)S[C@@H]2[C@H](NC(=O)[C@H](N)c3ccc(O)cc3)C(=O)N2[C@H]1C(=O)O [AMOXICILLIN, reference compound] |  |  | resistant |  | 
9 |  |  |  |  |  |  | C[C@H]1c2cccc(O)c2C(=O)C2=C(O)[C@]3(O)C(=O)C(C(N)=O)=C(O)[C@@H](N(C)C)[C@@H]3[C@@H](O)[C@@H]21 [DOXYCYCLINE, reference compound] |  |  |  |  | MIC50 [6]: 1 µg/mL (≈ 2.25 µM); MIC99 [6]: 2 µg/mL (≈ 4.5 µM)
